Reference: EPA's ToxValDB 9.5 (doi:10.2903/j.efsa.2011.1924)

What was measured:
[1] = subchronic
[2] = subchronic, duration: 90 days, oral, diet

In the case of CCCc1ccn(-c2ccccc2)n1 [1H-Pyrazole, 1-phenyl-3(or 5)-propyl-], the NOAEL [1] is reported as 25 mg/kg-day.
Molecule CC(=O)c1nccs1 [2-Acetylthiazole] has an NOAEL (Rattus norvegicus; [2]) of 50 mg/kg-day.
Work on CCC(=O)c1nccs1 [2-Propionylthiazole] yielded an NOAEL (Rattus norvegicus; [2]) of 50 mg/kg-day.
Molecule c1csc(SSc2cccs2)c1 [2-Thienyl disulfide] has an NOAEL (Rattus norvegicus; [2]) of 0.29 mg/kg-day.
In the case of Cc1ccc2c(c1)OC(=O)C2C (stereo unspecified) [3,6-Dimethyl-1-benzofuran-2(3H)-one], the NOAEL (Rattus norvegicus; subchronic, duration: 90 days, oral) is reported as 5.42 mg/kg-day.
With Cc1ncc2c(n1)CSC2 [5,7-Dihydro-2-methylthieno[3,4-d]pyrimidine] the NOAEL (Rattus norvegicus; subchronic, duration: 90 days) was 6.6 mg/kg-day.
With CC(=O)c1ccnc(C)n1 [Ethanone, 1-(2-methyl-4-pyrimidinyl)-] the NOAEL (Rattus norvegicus; subchronic, duration: 90 days, Sprague-Dawley) was 1 mg/kg-day.
Work on C[S+](C)CC[C@H](N)C(=O)O.[Cl-] [L-Methylmethionine sulfonium chloride] yielded an NOAEL (Rattus norvegicus; chronic, duration: 14 weeks, oral, diet, M/F, Wistar, no effects) of 250 mg/kg-day.
With COCCO [Methoxyethanol] the NOAEL (Rattus norvegicus; chronic) was 6 mg/kg-day.
With COc1cnc(C)s1 [Thiazole, 5-methoxy-2-methyl-] the NOAEL ([1]; duration: 90 days) was 8.6 mg/kg-day.
COCCOC(C)OCc1ccccc1 (stereo unspecified) [{[1-(2-Methoxyethoxy)ethoxy]methyl}benzene] gave an NOAEL (Rattus norvegicus; chronic) of 6 mg/kg-day.
